# Experimental data reported in PMC5863483, “Low HLA binding of diabetes-associated CD8+ T-cell epitopes is increased by post translational modifications” (BMC Immunology, 2018).
# pIC50: −log10 of the molar value. Where no end group is shown, it is not given here.
# Target: HLA-A*02:01 (Homo sapiens, UniProt P04439, D140Y/D185E/D98H/E176V/E277Q/G131W/G231S/I119V/I121R/I166T/I218V/L300P/L318F/N151K/N90K/P208A/P217A/Q86G/Q94H/R138H/R169H/T345S)
# Experiment: HLA-peptide competition binding assay, A*02:01
# Conditions: not given
row,Sequence,pIC50
1,HLCGSHLVEA [reference compound],5.12
2,LLHVHHSCPL [reference compound],5.11
3,LLQVHHSCPL [reference compound],5.51
4,LLSILCIWV [reference compound],6.13
5,LLSLFSLWL [reference compound],6.82
6,LMGDKSENV [reference compound],5.13
7,LVEALYLVC,4.93
8,MALWMRLLPL,5.90
9,RGYYYTPKT,5.06
10,SHLVEALYLV [reference compound],5.67
11,SLTTISTTL [reference compound],6.63
12,VAANIVLTV [reference compound],6.49

# Same assay, conditions: post-translationally modified insulin peptide; competition binding assay; a dash indicates IC50 >40,000 nM; read-out: A*02:01 binding (IC50 nM) Modified
row,Sequence,IC50
1,FVDEHLCGS,> 40000 nM
2,FVDEHLCGSH,> 40000 nM
3,GERGYFYTP,> 40000 nM
4,GERGYFYTPK,> 40000 nM
5,GERGYYYTPK,> 40000 nM
6,LVCGERGYF,> 40000 nM
7,LVCGERGYFY,> 40000 nM
8,LYLVCGERGY,> 40000 nM
9,RGYFYTPKT,> 40000 nM
10,VCGERGYFY,> 40000 nM
11,VCGERGYFYT,> 40000 nM
12,VDEHLCGSH,> 40000 nM
13,VDEHLCGSHL,> 40000 nM

# Same assay, conditions: post-translationally modified insulin-derived peptide; radiolabeled ligand competition, purified MHC, two-day incubation, three or more independent experiments; read-out: A*02:01 binding, Modified
row,Sequence,pIC50
1,ERGYYYTPKT,5.24

# Same assay, conditions: read-out: A*02:01 binding (IC50 nM) Modified; post-translationally modified insulin peptide; competition binding assay; a dash indicates IC50 >40,000 nM
row,Sequence,IC50
1,ERGYYYTPK,> 40000 nM
2,GERGYYYTP,> 40000 nM

# Same assay, conditions: read-out: A*02:01 binding (IC50 nM) WT
row,Sequence,IC50
1,FVNQHLCGSH,13200 nM
2,GSHLVEALYL,1770 nM
3,GSLQKRGIV,32700 nM
4,HLVEALYLVC,692 nM
5,LCGSHLVEA,1350 nM
6,LVEALYLVCG,23300 nM
7,MRLLPLLAL [MRLLPLLAL],228 nM
8,MRLLPLLALL,10 nM
9,NQHLCGSHLV,7990 nM
10,REAEDLQVGQ,23700 nM
11,RLLPLLALLA,11 nM
12,SHLVEALYL,257 nM
13,SLQKRGIVE [SLQKRGIVE],5950 nM
14,VEALYLVCG,14300 nM
15,VEALYLVCGE,8870 nM
16,VNQHLCGSHL,6640 nM

# Same assay, conditions: read-out: IC50 nM, target assay A*02:01
row,Sequence,IC50
1,FIQVYEVERA [reference compound],7020 nM
2,FLFAVGFYL [reference compound],1.1 nM
3,"FLIVLSVAL [FLIVLSVAL, reference compound]",26 nM
4,FLLSLFSLWL [reference compound],16 nM
5,FLQDVMNIL [reference compound],70 nM
6,FLWSVFMLI [reference compound],26 nM
7,FLWSVFWLI [reference compound],55 nM
8,FMTSSWWGA [reference compound],378 nM
9,FMTSSWWRA [reference compound],101 nM
10,FMTSSWWRAPL [reference compound],84 nM
11,GIPPAPHGV [reference compound],219 nM
12,GIPPAPRGV [reference compound],1230 nM
13,GLLQVHHSCPL [reference compound],5.8 nM
14,GLPAGAAAQA [reference compound],530 nM
15,GVFIQVYEV [reference compound],460 nM
16,HIAGSLAVV [reference compound],216 nM
17,HLASEKVYAI [reference compound],4060 nM
18,HLSYHRLLPL [reference compound],4260 nM
19,HLSYHWLLPL [reference compound],3820 nM
20,ILAVDGVLSV [reference compound],2.2 nM
21,ILDKKVEKV [reference compound],11200 nM

row,Sequence,IC50
1,ILKDFSILL [reference compound],39 nM
2,ILMHCQTTL [reference compound],478 nM
3,ILVLASTITI [reference compound],675 nM
4,IQATVMIIV [reference compound],9040 nM
5,KCQEVLAWL [reference compound],> 40000 nM
6,KLQVFLIVL [reference compound],1370 nM
7,KMYAFTLES [reference compound],880 nM
8,KVLHELFGMDI [reference compound],11 nM
9,LALWGPDPAA [reference compound],30300 nM
10,LASEKVYAI [reference compound],6930 nM
11,LASEKVYTI [reference compound],1250 nM
12,"LCGSHLVEAL [LCGSHLVEAL, reference compound]",> 40000 nM
13,LIFDLGGGT [reference compound],5420 nM
14,LLDVAPLSL [reference compound],51 nM
15,LLGRFELIGI [reference compound],233 nM
16,LLIDLTSFL [reference compound],8.1 nM
17,LLLLDVAPL [reference compound],10 nM
18,LLPPLLEHL [reference compound],444 nM
19,LLQEYNWEL [reference compound],35 nM
20,LMFWSPSHSCA [reference compound],143 nM
21,LNIDLLWSV [reference compound],684 nM

row,Sequence,IC50
1,MVWESGCTV [reference compound],126 nM
2,NLAQDLATV [reference compound],67 nM
3,NLFLFLFAV [reference compound],1230 nM
4,NLLGRFELI [reference compound],764 nM
5,NLLGRFELIGI [reference compound],1.8 nM
6,QLARQQVHV [reference compound],> 40000 nM
7,RLGPVARTRV [reference compound],581 nM
8,RLLCALTSL [reference compound],91 nM
9,"RLLPLLALLAL [RLLPLLALLAL, reference compound]",109 nM
10,"RLLPLWAAL [RLLPLWAAL, reference compound]",52 nM
11,RLLPLWAALPL [reference compound],5.4 nM
12,RLLYPDYQI [reference compound],124 nM
13,RLQREWHTL [reference compound],1230 nM
14,RMMEYGTTMV [reference compound],709 nM
15,"SISVLISAL [SISVLISAL, reference compound]",1550 nM
16,SLAAGVKLL [reference compound],3690 nM
17,SLASLLPHV [reference compound],9.1 nM
18,SLEEEIRFL [reference compound],472 nM
19,SLFEGVDFYT [reference compound],51 nM
20,SLQKRGIVEQ [reference compound],> 40000 nM
21,SLSPLQAEL [reference compound],101 nM

row,Sequence,IC50
1,SLTAISTTL [reference compound],242 nM
2,SLYHVYEVNL [reference compound],209 nM
3,SLYQLENYC [reference compound],16900 nM
4,SMCRFSPLTL [reference compound],1150 nM
5,SMPQGTFPV [reference compound],631 nM
6,STVASRLGPV [reference compound],25100 nM
7,STVASWLGPV [reference compound],9230 nM
8,SVASLLPHV [reference compound],1760 nM
9,TIADFWQMV [reference compound],4690 nM
10,TMHSLTIQM [reference compound],104 nM
11,TVASRLGPV [reference compound],7700 nM
12,VIVMLTPLV [reference compound],2120 nM
13,VLFGLGFAI [reference compound],149 nM
14,VLHELFGMDI [reference compound],287 nM
15,VLNSLASLL [reference compound],4970 nM
16,VLNSVASLL [reference compound],1140 nM
17,VLVEGSTRI [reference compound],17200 nM
18,VMNILLQYV [reference compound],2020 nM
19,VMNILLQYVV [reference compound],2310 nM
20,VVTGVLVYL [reference compound],9 nM
21,WGPDPAAA [reference compound],> 40000 nM

# Same assay, conditions: unmodified (WT) insulin peptide; competition binding assay; a dash indicates IC50 >40,000 nM; read-out: A*02:01 binding (IC50 nM) WT
row,Sequence,IC50
1,FFYTPKTRR,> 40000 nM
2,FFYTPKTRRE,> 40000 nM
3,FVNQHLCGS,> 40000 nM
4,FYTPKTRREA,> 40000 nM
5,GERGFFYTP,> 40000 nM
6,GSLQKRGIVE [GSLQKRGIVE],> 40000 nM
7,HLCGSHLVE,> 40000 nM
8,KTRREAEDL,> 40000 nM
9,KTRREAEDLQ,> 40000 nM
10,"LCGSHLVEAL [LCGSHLVEAL, reference compound]",> 40000 nM
11,LEGSLQKRG,> 40000 nM
12,LEGSLQKRGI,> 40000 nM
13,LQKRGIVEQ,> 40000 nM
14,LQKRGIVEQC,> 40000 nM
15,LVCGERGFF,> 40000 nM
16,NQHLCGSHL,> 40000 nM
17,PKTRREAED [PKTRREAED],> 40000 nM
18,PKTRREAEDL,> 40000 nM
19,QHLCGSHLV,> 40000 nM
20,QHLCGSHLVE,> 40000 nM
21,QKRGIVEQC,> 40000 nM
22,REAEDLQVG,> 40000 nM
23,RREAEDLQV,> 40000 nM
24,RREAEDLQVG,> 40000 nM
25,TPKTRREAE,> 40000 nM
26,TPKTRREAED [TPKTRREAED],> 40000 nM
27,TRREAEDLQ,> 40000 nM
28,TRREAEDLQV,> 40000 nM
29,VCGERGFFY,> 40000 nM
30,VNQHLCGSH,> 40000 nM

# Same assay, conditions: unmodified (wild type) insulin-derived peptide; radiolabeled ligand competition, purified MHC, two-day incubation, three or more independent experiments; read-out: A*02:01 binding, WT
row,Sequence,pIC50
1,LALEGSLQKR,< 4.40
2,LWMRLLPLLA,6.39
3,LYLVCGERG,4.55
4,MALWMRLLP,5.34
5,QHLCGSHLV,< 4.40
